In patent US8889688B2, “Piperazines as antimalarial agents” (Actelion Pharmaceuticals Ltd., priority 2011, dated 2014):
Read-outs that look alike come from different tables or passages of the source.

Columns and labels:
[1] = system: P. berghei strain GFP-ANKA; assay: In vivo antimalarial efficacy study in infected NMRI mice; conditions: Plasmodium berghei; female NMRI mice infected with P. berghei GFP-ANKA; single oral dose of 100 mg/kg 24 h after infection; parasitemia 48 h after drug treatment (day 3); read-out: Activity (inhibition of parasitemia) expressed as a percent relative to the control group
Method: In Vivo Antimalarial Efficacy Studies
In vivo antimalarial activity is assessed for groups of three female NMRI mice (20-22 g) intravenously infected on day 0 with P. berghei strain GFP-ANKA (0.2 mL heparinized saline suspension containing 2×10^7 parasitized erythrocytes). In control mice, parasitemia typically rises to approximately 40% by day 3 after infection. Compounds are formulated in Tween 80/ethanol (7%/3%) usually at concentrations of 10 mg/mL. Compounds are administered in a volume of 10 mL/kg orally as single doses (1×100 mg/kg, 24 h after infection). 48 h after drug treatment (day 3 post-infection), 1 μl tail blood is taken, resuspended in 1 mL PBS buffer and parasitemia determined with a FACScan (Becton Dickinson) by counting 100′000 red blood cells. Activity is calculated as the difference between the mean value of the control group and treated groups expressed as a percent relative to the control group.

[2] = system: erythrocytic stages of P. falciparum NF54; assay: Plasmodium falciparum in vitro assay, [3H] hypoxanthine incorporation; format: cell-based; conditions: Plasmodium falciparum, Erythrocyte, 72 h, P. falciparum NF54 in human red blood cells, 48 h + 24 h incubation
Summary of the method: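 Cultures in human red blood cells (2.5% hematocrit, 0.3% parasitemia) were exposed to serially diluted compounds for 48 h at 37° C. under 4% CO2, 3% O2, 93% N2. [3H] hypoxanthine (0.5 μCi) was added for a further 24 h, incorporation counted by scintillation, and IC50 derived from sigmoidal inhibition curves.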

[3] = screening medium with Albumax (5 g/L), read-out: IC50 on NF54 (with Albumax)
[4] = screening medium with human serum (50% final concentration), read-out: IC50 on NF54 (with 50% Serum)

SMILES | inhibition in vivo at 100 mg/kg [1] [%] | IC50 [2, 3] [nM] | IC50 [2, 4] [nM]
CC(=O)N1CCN(c2ccc(CN(C(=O)C=Cc3ccc(C(F)(F)F)cc3)[C@@H](Cc3ccccc3)C(=O)N3CCN(Cc4ccc(S(C)(=O)=O)cc4)CC3)cc2)CC1 [Example 47, (S)-N-(4-(4-acetylpiperazin-1-yl)benzyl)-N-(1-(4-(4-(methylsulfonyl)benzyl)piperazin-1-yl)-1-oxo-3-phenylpropan-2-yl)-3-(4-(trifluoromethyl)phenyl)acrylamide] | 98.4 | 0.5 | 3.5
CCc1ccc(C=CC(=O)N(Cc2ccc(N3CCN(C(C)=O)CC3)cc2)[C@@H](Cc2ccccc2)C(=O)N2CCN(Cc3ccc(C#N)cc3)CC2)cc1 [Example 30, (S)-N-[4-(4-Acetyl-piperazin-1-yl)-benzyl]-N-{1-benzyl-2-[4-(4-cyano-benzyl)-piperazin-1-yl]-2-oxo-ethyl}-3-(4-ethyl-phenyl)-acrylamide] | 97.7 | 0.9 | 5
CCc1ccc(C=CC(=O)N(Cc2ccc(N3CCN(C(C)=O)CC3)cc2)[C@@H](Cc2ccccc2)C(=O)N2CCN(Cc3ccc(N(C)CCO)cc3)CC2)cc1 [Example 59, (S)-N-[4-(4-Acetyl-piperazin-1-yl)-benzyl]-N-[1-benzyl-2-(4-{4-[(2-hydroxy-ethyl)-methyl-amino]-benzyl}-piperazin-1-yl)-2-oxo-ethyl]-3-(4-ethyl-phenyl)-acrylamide] | 96.5 | 1.6 | 3.8
CC(=O)N1CCN(c2ccc(CN(C(=O)C=Cc3ccc(C(C)C)cc3)[C@@H](Cc3ccccc3)C(=O)N3CCN(Cc4ccc(C#N)cc4)CC3)cc2)CC1 [Example 32, (S)-N-[4-(4-Acetyl-piperazin-1-yl)-benzyl]-N-{1-benzyl-2-[4-(4-cyano-benzyl)-piperazin-1-yl]-2-oxo-ethyl}-3-(4-isopropyl-phenyl)-acrylamide] | 98.5 | 0.5 | 4.4
CC(=O)Nc1ccc(C=CC(=O)N(Cc2ccc(N3CCN(C(C)=O)CC3)cc2)[C@@H](Cc2ccccc2)C(=O)N2CCN(Cc3ccc(C#N)cc3)CC2)cc1 [Example 27, (S)-3-(4-Acetylamino-phenyl)-N-[4-(4-acetyl-piperazin-1-yl)-benzyl]-N-{1-benzyl-2-[4-(4-cyano-benzyl)piperazin-1-yl]-2-oxo-ethyl}-acrylamide] | < 40 | 1.8 | 12.9
CCS(=O)(=O)c1ccc(CN2CCN(C(=O)[C@H](Cc3ccccc3)N(Cc3ccc(N4CCN(C(C)=O)CC4)cc3)C(=O)C=Cc3ccc(C(F)(F)F)cc3)CC2)cc1 [Example 49, (S)-N-(4-(4-acetylpiperazin-1-yl)benzyl)-N-(1-(4-(4-(ethylsulfonyl)benzyl)piperazin-1-yl)-1-oxo-3-phenylpropan-2-yl)-3-(4-(trifluoromethyl)phenyl)acrylamide] | 98.6 | 0.8 | 3.1
CC(=O)N1CCN(c2ccc(CN(C(=O)C=Cc3ccc(C(C)C)cc3)[C@@H](Cc3ccccc3)C(=O)N3CCN(Cc4ccc(Cl)cc4)CC3)cc2)CC1 [Example 42, (S)-N-[4-(4-Acetyl-piperazin-1-yl)-benzyl]-N-{1-benzyl-2-[4-(4-chloro-benzyl)-piperazin-1-yl]-2-oxo-ethyl}-3-(4-isopropyl-phenyl)-acrylamide] | 97.3 | 1.7 | 13.7
CC(=O)N1CCN(c2ccc(CN(C(=O)C=Cc3ccc(OC(F)F)cc3)[C@@H](Cc3ccccc3)C(=O)N3CCN(Cc4ccc(C#N)cc4)CC3)cc2)CC1 [Example 31, (S)-N-[4-(4-Acetyl-piperazin-1-yl)-benzyl]-N-{1-benzyl-2-[4-(4-cyano-benzyl)-piperazin-1-yl]-2-oxo-ethyl}-3-(4-difluoromethoxy-phenyl)-acrylamide] | 88.9 | 1.7 | 3.8
CCOc1ccc(C=CC(=O)N(Cc2ccc(N3CCN(C(C)=O)CC3)cc2)[C@@H](Cc2ccccc2)C(=O)N2CCN(Cc3ccccc3)CC2)cc1 [Example 4, (S)-N-[4-(4-Acetyl-piperazin-1-yl)-benzyl]-N-[1-benzyl-2-(4-benzyl-piperazin-1-yl)-2-oxo-ethyl]-3-(4-ethoxy-phenyl)-acrylamide] | 97.4 | 1.9 | 10
CCCOc1ccc(C=CC(=O)N(Cc2ccc(N3CCN(C(C)=O)CC3)cc2)[C@@H](Cc2ccccc2)C(=O)N2CCN(Cc3ccc(N(C)CCO)cc3)CC2)cc1 [Example 57, (S)-N-[4-(4-Acetyl-piperazin-1-yl)-benzyl]-N-[1-benzyl-2-(4-{4-[(2-hydroxy-ethyl)-methyl-amino]-benzyl}-piperazin-1-yl)-2-oxo-ethyl]-3-(4-propoxy-phenyl)-acrylamide] | 98.2 | 1.7 | 5.1
CC(=O)N1CCN(c2ccc(CN(C(=O)C=Cc3ccc(OC(C)C)cc3)[C@@H](Cc3ccccc3)C(=O)N3CCN(Cc4ccc(Cl)cc4)CC3)cc2)CC1 [Example 39, (S)-N-[4-(4-Acetyl-piperazin-1-yl)-benzyl]-N-{1-benzyl-2-[4-(4-chloro-benzyl)-piperazin-1-yl]-2-oxo-ethyl}-3-(4-isopropoxy-phenyl)-acrylamide] | 99 | 2.3 | 11
CCOc1ccc(C=CC(=O)N(Cc2ccc(N3CCN(C(C)=O)CC3)cc2)[C@@H](Cc2ccccc2)C(=O)N2CCN(Cc3ccc(N(C)C)cc3)CC2)cc1 [Example 15, (S)-N-[4-(4-Acetyl-piperazin-1-yl)-benzyl]-N-{1-benzyl-2-[4-(4-dimethylamino-benzyl)-piperazin-1-yl]-2-oxo-ethyl}-3-(4-ethoxy-phenyl)-acrylamide] | 99 | 1.7 | 6.8
CCCOc1ccc(C=CC(=O)N(Cc2ccc(N3CCN(C(C)=O)CC3)cc2)[C@@H](Cc2ccccc2)C(=O)N2CCN(Cc3ccc(S(C)(=O)=O)cc3)CC2)cc1 [Example 46, (S)-N-[4-(4-Acetyl-piperazin-1-yl)-benzyl]-N-{1-benzyl-2-[4-(4-(methylsulfonyl)-benzyl)-piperazin-1-yl]-2-oxo-ethyl}-3-(4-propoxyphenyl)-acrylamide] | 98.9 | 0.4 | 1.1
CC(=O)N1CCN(c2ccc(CN(C(=O)C=Cc3ccc(S(C)(=O)=O)cc3)[C@@H](Cc3ccccc3)C(=O)N3CCN(Cc4ccc(Cl)cc4)CC3)cc2)CC1 [Example 36, (S)-N-[4-(4-Acetyl-piperazin-1-yl)-benzyl]-N-{1-benzyl-2-[4-(4-chloro-benzyl)-piperazin-1-yl]-2-oxo-ethyl}-3-(4-methanesulfonyl-phenyl)-acrylamide] | 46.8 | 7.8 | 28
CCCOc1ccc(C=CC(=O)N(Cc2ccc(N3CCN(C(C)=O)CC3)cc2)[C@@H](Cc2ccccc2)C(=O)N2CCN(Cc3ccc(C#N)cc3)CC2)cc1 [Example 28, (S)-N-[4-(4-Acetyl-piperazin-1-yl)-benzyl]-N-{1-benzyl-2-[4-(4-cyano-benzyl)-piperazin-1-yl]-2-oxo-ethyl}-3-(4-propoxy-phenyl)-acrylamide] | 99.3 | 1.1 | 3.6
